Test [1] concerns antibodies raised against ozonized digoxin-BSA. The format is binding, rabbit. The note with it: for competition for 3H-digoxin binding / cross reaction with the new antibody: 3H-digoxin RIA, FIG. 7a and 7b; for cross-reactivity index: calculated from the molar concentration required to reduce the 3H-digoxin binding by 50%; for Digoxin apparent value measured by [3H]digoxin RIA: metabolite alone at the actual concentration of the line, actual digoxin 0. The method, then:
The ^3 H-digoxin radioimmunoassay method was adapted from that previously described in Cerceo E. and Elloso CA (1972) Factors Affecting the Radioimmunoassay of Digoxin, Clin. Chem. 18, 539-542. Briefly, tubes containing 0-30 ng ^3 H-digoxin (3000 dpm) in PBS were incubated at room temperature for 15 mins in the presence of 1/20 diluted antidigoxin serum. Ice cold dextran coated charcoal was added and incubated at 4° C. for 10 mins. This mixture was centrifuged and the ^3 H-digoxin remaining in the supernate was counted in a liquid scintillation spectrometer. Controls in the absence of serum and for non-immune serum were performed in parallel.
The degree of cross reactivity of the digoxin metabolites was monitored using the ^3 H-digoxin radioimmunoassay.

In test [2] the test system is antibodies generated against periodate-oxidized digoxin-BSA conjugate. The format is binding. The note with it: metabolite alone at the actual concentration of the line, actual digoxin 0. The text has this: A comparison was made between the antiserum of Example 4 and the commercially available antidigoxin serum using FPIA (fluorescence polarization immuno assay) to measure the digoxin concentration for solutions containing known levels of the digoxin metabolites as identified in the following Table 3.

Test [3] has as its system commercial antidigoxin antibodies raised against BSA periodate conjugated digoxin. The experiment in a line: 125I-digoxin RIA using commercial antidigoxin antibodies (whole serum or affinity purified). The note with it: for Concentration Measured by RIA Using Affinity Purified Antibody: antibody affinity purified from the same immune serum; for Concentration Measured by RIA Using whole Serum: commercial antidigoxin antibodies, true concentration of antigen given. The format is binding. The method, then: Antidigoxin antibodies raised against BSA periodate conjugated digoxin were purchased from Antibodies Incorporated (Davis, Calif.) and Wien Laboratories (Succasunna, N.J.). Antidigoxin activity was determined using the ^125 I-digoxin radioimmune assay as previously described. Soldin, S; Papanastasion-Diamand, A; Heyes, J;, Lingwood C. A. and Olley, P. (1984) Are Immunoassays for Digoxin Reliable? Clin. Biochem. 17, 317-320. The immune serum was precipitated with 40% ammonium sulfate. The precipitate was redissolved and dialysed against phosphate buffered saline pH 7.4 (PBS). Antidigoxin antibodies were further purified by immunoaffinity chromatography. Digoxin was covalently linked to agarose by use of a photoactive heterobifunctional crosslinking agent as described in Lingwood, C. A. (1984) Production of Glycolipid Affinity Matrices by Use of Heterobifunctional Crosslinking Agents, J. Lipid Res. 25, 1010-1012. Amino hexyl agarose was treated with 2 mM hydroxysuccinimidyl azidobenzoate in the dark for 1 hour at room temperature. The beads were washed with water and 2 mg ^3 H-digoxin (1 mg/ml enthanol/water 1:1) was added. The beads were rotoevaporated to dryness when the digoxin was absorbed onto the beads. The dry beads were then irradiated for 2 min/1 cm from a Mineralight II UV source with stirring, when the digoxin is covalently attached to the agarose beads. The matrix was washed with 100 column volumes 50% ethanol and 50 column volumes water. The wash fractions were concentrated and unbound ^3 H-digoxin was measured. The amount of digoxin coupled/ml agarose was calculated (0.2 μmoles/ml beads).
The immunoglobulin fraction from 1 ml immune serum was applied and the digoxin column was washed with PBS. Antidigoxin activity was measured using the automated ^125 I-RIA method. […] Specific antibodies were eluted by addition of 10 ml 1M KI followed by 10 ml 1M KSCN. The eluted fractions were dialysed, concentrated vs sucrose, dialysed and used in the RIA.
Cross-reactivity of commercial antidigoxin antibodies towards the digoxin metabolites in which one, two and three sugars have been removed (digoxigenin bisdigitoxoside, monodigitoxoside and […] respectively) was measured. […] Purification of the antidigoxin antibodies by affinity chromatography considerably reduces this cross reactivity such that the metabolites are now recognized on a one to one basis relative to digoxin.

Test [4] relates to antidigoxin antibody raised against a bovine serum albumin-digoxin conjugate immunogen. The note with it: background statement on prior-art antibodies; cited from earlier work.

Entries after “also recorded” stand apart in the source; their conditions may differ.

On to `C[C@H]1O[C@@H](O[C@H]2[C@@H](O)C[C@H](O[C@H]3[C@@H](O)C[C@H](O[C@H]4CC[C@@]5(C)[C@H](CC[C@@H]6[C@@H]5CC[C@]5(C)[C@@H](C7=CC(=O)OC7)CC[C@]65O)C4)O[C@@H]3C)O[C@@H]2C)C[C@H](O)[C@@H]1O` [Digitoxin], for which, in test [1], the “competition for 3H-digoxin binding / cross reaction with the new antibody” value is reported as “considerable reduced reactivity”, the cross-reactivity index is 11% and the “Digoxin apparent value measured by [3H]digoxin RIA” value is 0 nmol/L. For the same compound, the “Digoxin apparent value measured by FPIA” value in test [2] was determined as 9.6 nmol/L.

As to `C[C@H]1O[C@@H](O[C@H]2[C@@H](O)C[C@H](O[C@H]3CC[C@@]4(C)[C@H](CC[C@@H]5[C@@H]4C[C@@H](O)[C@]4(C)[C@@H](C6=CC(=O)OC6)CC[C@]54O)C3)O[C@@H]2C)C[C@H](O)[C@@H]1O` [Digoxigenin bisdigitoxide, digoxigenin bisdigitoxide], in test [1], the cross-reactivity index was 14.6% and the “Digoxin apparent value measured by [3H]digoxin RIA” value came out at 0.8 nmol/L. Besides, in test [3], the “Concentration Measured by RIA Using Affinity Purified Antibody” value came out at 6.3 nmol/L and the “Concentration Measured by RIA Using whole Serum” value was 25.2 nmol/L. Moreover, in test [4], the “cross-reactivity with the antibodies” value is on record as “react with the antibodies”. For the same compound, the “Digoxin apparent value measured by FPIA” value in test [2] turned out to be 6.05 nmol/L.

As to `C[C@H]1O[C@@H](O[C@H]2CC[C@@]3(C)[C@H](CC[C@@H]4[C@@H]3C[C@@H](O)[C@]3(C)[C@@H](C5=CC(=O)OC5)CC[C@]43O)C2)C[C@H](O)[C@@H]1O` [Digoxigenin monodigitoxide], in test [1], the cross-reactivity index was 3.7% and the “Digoxin apparent value measured by [3H]digoxin RIA” value stood at 0.7 nmol/L. Besides, in test [3], the “Concentration Measured by RIA Using Affinity Purified Antibody” value is 5.0 nmol/L and the “Concentration Measured by RIA Using whole Serum” value came out at 24.3 nmol/L. For the same compound, the “cross-reactivity with the antibodies” value in test [4] is given as “react with the antibodies”. Moreover, the “Digoxin apparent value measured by FPIA” value in test [2] was 10 nmol/L.

Consider `C[C@]12CC[C@H](O)C[C@H]1CC[C@@H]1[C@@H]2C[C@@H](O)[C@]2(C)[C@@H](C3=CC(=O)OC3)CC[C@]12O` [Digoxigenin], for which, in test [1], the “competition for 3H-digoxin binding / cross reaction with the new antibody” value is recorded as “ineffective antigen” and the “Digoxin apparent value measured by [3H]digoxin RIA” value amounted to 0 nmol/L. In test [3], the “Concentration Measured by RIA Using Affinity Purified Antibody” value was found to be 6.9 nmol/L and the “Concentration Measured by RIA Using whole Serum” value is 25.2 nmol/L. Moreover, the “cross-reactivity with the antibodies” value in test [4] is “react with the antibodies”. The “Digoxin apparent value measured by FPIA” value in test [2] amounted to 13.8 nmol/L.

For `C[C@]12CC[C@H](O)C[C@H]1CC[C@@H]1[C@@H]2C[C@@H](O)[C@]2(C)[C@@H](C3COC(=O)C3)CC[C@]12O` (stereo partly shown) [Dihydrodigoxigenin], in test [3], the “Concentration Measured by RIA Using Affinity Purified Antibody” value came to 0.8 nmol/L and the “Concentration Measured by RIA Using whole Serum” value stood at 0.8 nmol/L. Besides, the “cross-reactivity with the antibodies” value in test [4] is recorded as “little or no cross-reactivity”.

Consider `C[C@@H](O)[C@@H](O)[C@@H](O)CC=O` [digitoxose], for which the “competition for 3H-digoxin binding / cross reaction with the new antibody” value in test [1] is “does not compete for digoxin binding; also recorded: does not cross react at all”.

With `CC1OC(OC2C(O)CC(OC3C(O)CC(OC4CCC5(C)C(CCC6C5CC(O)C5(C)C(C7=CC(=O)OC7)CCC65O)C4)OC3C)OC2C)CC(O)C1O` (stereo not shown) [digoxin, Digoxin], in test [1], the “competition for 3H-digoxin binding / cross reaction with the new antibody” value is recorded as “effectively competed out”.

`CC1OC(OC2C(O)CC(OC3C(O)CC(OC4CCC5(C)C(CCC6C5CC(O)C5(C)C(C7COC(=O)C7)CCC65O)C4)OC3C)OC2C)CC(O)C1O` (stereo not shown) [dihydrodigoxin]: the “cross-reactivity with the antibodies” value in test [4] is “little or no cross-reactivity”.

(Values after patent US4767720A, “Antidigoxin antibodies” (HSC Research Development Corporation, priority 1985, dated 1988).)
